Where a name gives a salt, the structure may show the parent alone.

human GPR119, sequence (Q8TDV5 whole entry): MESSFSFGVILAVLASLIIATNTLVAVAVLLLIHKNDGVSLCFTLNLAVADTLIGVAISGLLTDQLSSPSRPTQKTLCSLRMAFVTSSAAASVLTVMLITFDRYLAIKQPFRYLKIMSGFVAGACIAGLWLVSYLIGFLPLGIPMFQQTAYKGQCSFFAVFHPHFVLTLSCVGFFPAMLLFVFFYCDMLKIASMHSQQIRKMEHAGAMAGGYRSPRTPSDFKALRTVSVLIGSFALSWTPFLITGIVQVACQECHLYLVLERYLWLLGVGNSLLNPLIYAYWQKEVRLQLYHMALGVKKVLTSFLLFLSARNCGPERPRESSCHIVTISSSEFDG

The assay addresses human GPR119 (Homo sapiens (Human), UniProt Q8TDV5). Description: AlphaScreen cAMP assay in Min-6/hGPR119 cells (GPR119 activation, intracellular cAMP). It counts as cell-based. The settings on record: MIN6 cells stably transfected with human GPR119; 45 minutes' incubation at RT; AlphaScreen cAMP Assay Kit. The method, then: The compounds of formula I according to the invention are GPR119 agonists. The effect of the compounds on the activation of GPR119 and on the stimulation of intracellular cAMP concentration is determined using the AlphaScreen cAMP Assay Kit (Cat. No. #6760625R) made by PerkinElmer.
MIN6 cells [Miyazaki J et al. Endocrinology. 1990 July; 127(1):126-32] were stably transfected with an expression vector for human GPR119 cDNA (Acc. No. NP_848566). Min-6/hGPR119 cells are cultured in DMEM, 10% FBS, 50 μM β-mercaptoethanol, 0.3 mg/mL Geniticin, 2 mM GlutaMAX at 37° C. 5% CO2. For the assay, the cells are placed in Optiplates (white, 384-well, 160W-barcoded, TC, sterile with lid, Cat. No. #6007688 (Perkin Elmer); 10000 cells/well; 50 μl). The plates covered with lids are then incubated for 24 hours at 37° C./5% CO2.
After the medium has been sucked out of the wells completely, 10 μl of the test compound are added, the compounds are diluted beforehand with stimulating buffer (140 mM NaCl, 3.6 mM KCl, 0.5 mM NaH2PO4, 0.5 mM MgSO4, 1.5 mM CaCl2, 10 mM Hepes, 5 mM NaHCO3; pH 7.4. 0.5 mM IBMX and 0.1% BSA, the final DMSO concentration is 1%). After 45 minutes' incubation at RT, the cAMP concentrations are determined using the AlphaScreen cAMP Assay Kit (Cat. No. #6760625R from PerkinElmer).
As for `CC1CC(=O)NN=C1c1ccc2nc(-c3ccc(OCc4ccccc4)cc3)oc2c1` (centres unmarked) [Example 36, 6-[2-(4-benzyloxy-phenyl)-benzoxazol-6-yl]-5-methyl-4,5-dihydro-2H-pyridazin-3-one], the concentration giving a half-maximal response (EC50) was found to be 0.058 µM. As to `CCC1CC(=O)NN=C1c1ccc2nc(-c3ccc(O)cc3)oc2c1` (centres unmarked) [Example 37, 5-ethyl-6-[2-(4-hydroxy-phenyl)-benzoxazol-6-yl]-4,5-dihydro-2H-pyridazin-3-one], it took 0.636 µM to reach a half-maximal effect (EC50). Take `CC1CC(=O)NN=C1c1ccc2nc(-c3cccc(O)c3)oc2c1` (centres unmarked) [Example 38, 6-[2-(3-hydroxy-phenyl)-benzoxazol-6-yl]-5-methyl-4,5-dihydro-2H-pyridazin-3-one]: the response was half-maximal at 0.89 µM (EC50). `CCC1CC(=O)NN=C1c1ccc2nc(-c3cccc(O)c3)oc2c1` (centres unmarked) [Example 39, 6-[2-(3-hydroxy-phenyl)-benzoxazol-6-yl]-5-ethyl-4,5-dihydro-2H-pyridazin-3-one]: the concentration giving a half-maximal response (EC50) is 0.329 µM.

Regarding `CCC1CC(=O)NN=C1c1ccc2nc(-c3ccc(OCc4ncccn4)cc3)oc2c1` (centres unmarked) [Example 40, 5-ethyl-6-{2-[4-(pyrimidin-2-ylmethoxy)-phenyl]-benzoxazol-6-yl}-4,5-dihydro-2H-pyridazin-3-one], the concentration for a half-maximal effect (EC50) turned out to be 0.275 µM. In turn, `CCC1CC(=O)NN=C1c1ccc2nc(-c3ccc(OCC(=O)N(C)C)cc3)oc2c1` (centres unmarked) [Example 41, 2-{4-[6-(4-ethyl-6-oxo-1,4,5,6-tetrahydro-pyridazin-3-yl)-benzoxazol-2-yl]-phenoxy}-N,N-dimethyl-acetamide] came in with a half-maximal effective concentration (EC50) of 1.52 µM.

The compound `CCC1CC(=O)NN=C1c1ccc2nc(-c3ccc(OCc4cncn4C)cc3)oc2c1` (centres unmarked) [Example 42, 5-ethyl-6-{2-[4-(3-methyl-3H-imidazol-4-ylmethoxy)-phenyl]-benzoxazol-6-yl}-4,5-dihydro-2H-pyridazin-3-one] registered an EC50 of 4.18 µM.

The compound `CCC1CC(=O)NN=C1c1ccc2nc(-c3ccc(OCC(=O)NC)cc3)oc2c1` (centres unmarked) [Example 43, 2-{4-[6-(4-ethyl-6-oxo-1,4,5,6-tetrahydro-pyridazin-3-yl)-benzoxazol-2-yl]-phenoxy}-N-methyl-acetamide] came in with an EC50 of 1.07 µM. Against the preceding compound, the EC50 is about 3.9-fold lower. As for `CCC1CC(=O)NN=C1c1ccc2nc(-c3ccc(OCCN4CCN(C)CC4)cc3)oc2c1` (centres unmarked) [Example 44, 5-ethyl-6-(2-{4-[2-(4-methyl-piperazin-1-yl)-ethoxy]-phenyl}-benzoxazol-6-yl)-4,5-dihydro-2H-pyridazin-3-one dihydrochloride], the figure is 1.09 µM. Compound `CCC1CC(=O)NN=C1c1ccc2nc(-c3cccc(OCc4cccnc4)c3)oc2c1` (centres unmarked) [Example 45, 5-ethyl-6-{2-[3-(pyridin-3-ylmethoxy)-phenyl]-benzoxazol-6-yl}-4,5-dihydro-2H-pyridazin-3-one] gave a half-maximal effective concentration (EC50) of 0.807 µM. In turn, `CCC1CC(=O)NN=C1c1ccc2nc(-c3ccc(OCc4ccncc4)cc3)oc2c1` (centres unmarked) [Example 46, 5-ethyl-6-{2-[4-(pyridin-4-ylmethoxy)-phenyl]-benzoxazol-6-yl}-4,5-dihydro-2H-pyridazin-3-one] gave a concentration giving a half-maximal response (EC50) of 0.345 µM. In turn, `CCC1CC(=O)NN=C1c1ccc2nc(-c3ccc(OCc4ccccn4)cc3)oc2c1` (centres unmarked) [Example 47, 5-ethyl-6-{2-[4-(pyridin-2-ylmethoxy)-phenyl]-benzoxazol-6-yl}-4,5-dihydro-2H-pyridazin-3-one] displayed an EC50 of 0.226 µM.

For `CCC1CC(=O)NN=C1c1ccc2nc(-c3ccc(OCc4ccsc4)cc3)oc2c1` (centres unmarked) [Example 48, 5-ethyl-6-{2-[4-(thiophen-3-ylmethoxy)-phenyl]-benzoxazol-6-yl}-4,5-dihydro-2H-pyridazin-3-one], a half-maximal response (EC50) required 0.348 µM. This EC50 lies about 1.5-fold higher than the previous one. As for `CCC1CC(=O)NN=C1c1ccc2nc(-c3ccc(OCCN4CCCCC4)cc3)oc2c1` (centres unmarked) [Example 49, 5-ethyl-6-{2-[4-(2-piperidin-1-yl-ethoxy)-phenyl]-benzoxazol-6-yl}-4,5-dihydro-2H-pyridazin-3-one], the figure is 0.114 µM; as for `CCC1CC(=O)NN=C1c1ccc2nc(-c3ccc(OCc4nc(C(C)C)no4)cc3)oc2c1` (centres unmarked) [Example 50, 5-ethyl-6-{2-[4-(3-isopropyl-[1,2,4]oxadiazol-5-ylmethoxy)-phenyl]-benzoxazol-6-yl}-4,5-dihydro-2H-pyridazin-3-one], 0.223 µM; as for `CCC1CC(=O)NN=C1c1ccc2nc(-c3ccc(OCc4cccs4)cc3)oc2c1` (centres unmarked) [Example 51, 5-ethyl-6-{2-[4-(thiophen-2-ylmethoxy)-phenyl]-benzoxazol-6-yl}-4,5-dihydro-2H-pyridazin-3-one], 0.158 µM.

`CCCOc1ccc(-c2nc3ccc(C4=NNC(=O)CC4CC)cc3o2)cc1` (centres unmarked) [Example 52, 5-ethyl-6-[2-(4-propoxy-phenyl)-benzoxazol-6-yl]-4,5-dihydro-2H-pyridazin-3-one] had an EC50 of 0.189 µM. As for `CCC1CC(=O)NN=C1c1ccc2nc(-c3ccc(OCCN4CCCCCC4)cc3)oc2c1` (centres unmarked) [Example 53, 6-{2-[4-(2-azepan-1-yl-ethoxy)-phenyl]-benzoxazol-6-yl}-5-ethyl-4,5-dihydro-2H-pyridazin-3-one], the figure is 0.205 µM; as for `CCC1CC(=O)NN=C1c1ccc2nc(-c3ccc(OCC4CCCCC4)cc3)oc2c1` (centres unmarked) [Example 54, 6-[2-(4-cyclohexylmethoxy-phenyl)-benzoxazol-6-yl]-5-ethyl-4,5-dihydro-2H-pyridazin-3-one], 0.145 µM.

Compound `CCC1CC(=O)NN=C1c1ccc2nc(-c3ccc(OCCN(C)C)cc3)oc2c1` (centres unmarked) [Example 55, 6-{2-[4-(2-dimethylamino-ethoxy)-phenyl]-benzoxazol-6-yl}-5-ethyl-4,5-dihydro-2H-pyridazin-3-one] had a half-maximal effective concentration (EC50) of 0.486 µM. The compound `CCC1CC(=O)NN=C1c1ccc2nc(-c3ccc(OCCC4CCCCC4)cc3)oc2c1` (centres unmarked) [Example 56, 6-{2-[4-(2-cyclohexyl-ethoxy)-phenyl]-benzoxazol-6-yl}-5-ethyl-4,5-dihydro-2H-pyridazin-3-one] had an EC50 of 0.17 µM. For the compound `CCC1CC(=O)NN=C1c1ccc2nc(-c3ccc(OCCN(C(C)C)C(C)C)cc3)oc2c1` (centres unmarked) [Example 57, 6-{2-[4-(2-diisopropylamino-ethoxy)-phenyl]-benzoxazol-6-yl}-5-ethyl-4,5-dihydro-2H-pyridazin-3-one], the EC50 stood at 0.037 µM. In the case of `CCC1CC(=O)NN=C1c1ccc2nc(-c3ccc(OCCN4C(C)(C)CCCC4(C)C)cc3)oc2c1` (centres unmarked) [Example 58, 5-ethyl-6-(2-{4-[2-(2,2,6,6-tetramethyl-piperidin-1-yl)-ethoxy]-phenyl}-benzoxazol-6-yl)-4,5-dihydro-2H-pyridazin-3-one] it was 0.076 µM; in that of `CCC1CC(=O)NN=C1c1ccc2nc(-c3ccc(OCc4cncnc4)cc3)oc2c1` (centres unmarked) [Example 59, 5-ethyl-6-{2-[4-(pyrimidin-5-ylmethoxy)-phenyl]-benzoxazol-6-yl}-4,5-dihydro-2H-pyridazin-3-one], 1.59 µM.

The compound `CCC1CC(=O)NN=C1c1ccc2nc(-c3ccc(OCc4cccnc4)cc3)oc2c1` (centres unmarked) [Example 60, 5-ethyl-6-{2-[4-(pyridin-3-ylmethoxy)-phenyl]-benzoxazol-6-yl}-4,5-dihydro-2H-pyridazin-3-one] showed a 50% effective concentration (EC50) of 0.639 µM. This EC50 lies about 2.5-fold lower than the previous one. For `CCC1CC(=O)NN=C1c1ccc2nc(-c3ccc(OCC(=O)N4CCCCC4)cc3)oc2c1` (centres unmarked) [Example 61, 5-ethyl-6-{2-[4-(2-oxo-2-piperidin-1-yl-ethoxy)-phenyl]-benzoxazol-6-yl}-4,5-dihydro-2H-pyridazin-3-one], the EC50 was determined as 0.342 µM.
